Data on five compounds can be found in patent publication EP3412361A1, “METHOD FOR PREPARING PARTICULATE FORM CAESIUM-REMOVAL INORGANIC ION ADSORBENT AND PRODUCT AND APPLICATION THEREOF” (Tsinghua University, priority 2015, dated 2017).

This data set in a line: Monolayer dispersion threshold of metal salt on silica gel by XRD diffraction peak intensity extrapolation. In kind it is physicochemical. The following applies: salt impregnated on silica gel at 90 °C, dried 120 °C 10 h.
Protocol: Through equal volume impregnation method, silica gel pellets is impregnated with a series of different concentrations of salt solution containing M^n+ ion. The impregnated solid materials are dried in an oven to obtain a silica gel intermediate M/SiO2 with a different amounts of M salt on the surface. Based on monolayer dispersion principle of a metal salt on the surface of carrier, the monolayer dispersion threshold of various kinds of M^n+ ion salts on silica gel surface is determined by X - ray diffraction method. The value is the monolayer loading of various salts on the surface of silica gel carrier.
Further, in the step (1), it is necessary to determine monolayer dispersion threshold of M^n+ ion salt on the surface of silica gel, which may be measured by loading a series of different amounts of the M^n+ ion salt onto the surface of silica gel by the solution impregnation method followed by drying to obtain the sample to be tested.
The silica gel mass is 5-10 g, and the loading amount of M^n+ ion salt on the silica gel is 0.02g, 0.05g, 0.1g, 0.5g, 1.0g, 2.0g, 3.0g, 4.0g, 5.0g, 6.0 g per g silica gel; the ratio by volume of the M^n+ ion solution to the silica gel is 0.5-2.
The obtained samples series is subjected to X-ray diffraction (XRD) and the strongest diffraction peak intensity (y-axis) is linearly correlated with the corresponding M^n+ ion salt loading (x-axis) in which the intercept on the x-axis is the monolayer dispersion threshold.
Further, in the step (1), the impregnation process is carried out in a water bath at a temperature of 90 °C, and the mixture is continuously stirred until the liquid is completely evaporated and the solute M^n+ ion salt is fully supported on the silica gel surface.
Further, in the step (1), the silica gel intermediate M/ SiO2 is dried in an oven for 10 h at a temperature of 120 °C.
Then, 1 g of silica gel pellets were added to each beaker and the beaker was placed in a water bath at a temperature of 90 °C. In the process of evaporation of water, the mixture was being stirred with a glass rod until the water evaporated and the pellets were basically dry. The beaker was dried in an oven at 120 °C for 10 hours.
Then, 1 g of silica gel pellets were added to each beaker and the beaker was placed in a water bath at a temperature of 90 °C.
With `O.O.O.O.O.O.O=[N+]([O-])[O-].O=[N+]([O-])[O-].[Co+2]` [Co(NO3)2, cobalt nitrate], the “monolayer dispersion threshold on silica gel” value (from here on “monolayer dispersion threshold”) is listed as 0.63 g/g.
In the case of `O=S(=O)([O-])[O-].[Cu+2]` [CuSO4, copper sulfate], the “monolayer dispersion threshold” value is recorded as 0.79 g/g.
In the case of `[Cl][Fe]([Cl])[Cl]` [FeCl3, ferric chloride], the “monolayer dispersion threshold” value is 0.43 g/g.
Take `CC(=O)[O-].CC(=O)[O-].O.O.[Zn+2]` [Zn(AC)2, zinc acetate]: the “monolayer dispersion threshold” value is given as 0.18 g/g.
For `O.O=[N+]([O-])[O-].O=[N+]([O-])[O-].[O]=[Zr+2]` [ZrO(NO3)2], the “monolayer dispersion threshold” value is on record as 1.02 g/g.
